Values quoted from earlier work as cited in patent publication US6673373B2, “Antifungal formulation and the methods for manufacturing and using the same” (Carlsbad Technology Inc., priority 2001, dated 2004).

Columns and labels:
[1] = not given; remark: listed apart in the source
[2] = not given; remark: listed apart in the source

Compound | solubility in water | binding rate with plasma proteins (plasma proteins) [%] | time to reach peak concentration in plasma ([1]; after taken by the patients) [h] | concentration in blood as % of that in plasma ([1]; in vivo) | itraconazole in its original form excreted in feces ([1]; in vivo) | itraconazole in its original form secreted in urine ([1]; in vivo) [%] | plasma half life ([1]; in vivo) [days] | itraconazole metabolites secreted in urine ([1]; within a week after the uptake of the drug) | antifungal activity in vitro [2]
CCC(C)n1ncn(-c2ccc(N3CCN(c4ccc(OC[C@H]5CO[C@](Cn6cncn6)(c6ccc(Cl)cc6Cl)O5)cc4)CC3)cc2)c1=O (mixture of isomers) [itraconazole, (±)-cis-4-[4-[4-[4-[[2-(2,4-dichlorophenyl)-2-(1H-1,2,4-triazol-1-ylmethyl)-1,3-dioxolan-4-yl]methoxy]phenyl]-1-piperazinyl]phenyl]-2,4-dihydro-2-(1-methylpropyl)-3H-1,2,4-triazol-3-one] | less than 1 μg/ml | 99.8 | 3 to 4 | about 60% | 3-18% | ≤ 0.03 | 1 to 1.5 | About 35% | –
hydroxy-itraconazole | – | – | – | – | – | – | – | – | demonstrated in vitro to have antifungal activity
